What was measured:
A549 cells = experiment: Sphere formation assay in alginate-based 3D cell culture, IC50 compared with clonogenic assay in conventional 2D culture; conditions: for IC50 in the alginate-based 3D cell culture relative to the conventional 2D culture: 3D sphere formation vs 2D clonogenic assay, FIG. 4A; for fold change resistance (IC50 in alginate-based 3D cell culture divided by IC50 in conventional 2D culture): FIG. 4B
Text: Without limiting the scope of the present disclosure or appended claims with any particular theory or hypothesis, since the stemness is associated with a resistance to chemotherapy, cells cultured in an alginate-based 3D cell culture may be more resistant to chemotherapy drugs and more sensitive to stemness-targeting drugs than cells cultured in traditional 2D cultures. To evaluate the response of cells to drugs, the IC50 values of cells in both the alginate-based 3D and the conventional 2D cell cultures were determined. FIG. 4A summarizes the IC50 of the CSC-targeting therapies (BBI-608, BBI-503), chemotherapies (doxorubicin and gemcitabine), and a targeted therapy (sunitinib) with respect to A549 cells in the alginate-based 3D cell culture and the traditional 2D culture. […] To compare the effect of culturing cells in the alginate-based 3D and the conventional 2D cell cultures on IC50, the fold change in resistance can be calculated by obtaining the ratio of IC50 value in the alginate-based 3D cell culture to the IC50 value in the conventional 2D culture.
Into each well of a flat bottom-96 well plate, 30 μL suspension of the cells in alginate solution was dispensed. 9 μL of crosslinking solution was then added to each well to form alginate gels and thus embed A549 cells into the gel matrix. The plates were then incubated for 15 minutes at 37° C. to ensure a complete gelling of alginate, and then cultured in Prime XV media overnight. After the overnight culture, the cells were treated with various concentrations of BBI-608, BBI-503, sunitinib, doxorubicin, or gemcitabine for 24 h. The plates were then washed and cultured in fresh media for an additional 11 days before imaging the cultures with Celigo Imaging Cytometer (Nexcelcom Bioscience, Lawrence, Mass.). The number of spheres were counted, and used to calculate the IC50 values using Prism 5 (GraphPad).
A549 cells were plated in 6-well plates (1×10^3 A549 cells/well). After an overnight incubation in DMEM media, the cells were treated with various concentrations of BBI-608 for 24h, or BBI-503, sunitinib, doxorubicin, and gemcitabine for 72 hours. The plates were washed, and cultured in fresh media for an additional 6 days before staining the colonies with Giemsa Stain (Sigma, St. Louis, Mo.). The colonies were imaged using a ChemiDoc™ MP Imaging System (BioRad), and the number of colonies were counted using ImageJ (National Institutes of Health, Bethsada, Md.), and the IC50 values calculated using Prism 5.

A549 cellular spheroids = experiment: Efficacy on pre-formed cellular spheroids in alginate-based 3D cell culture (CellTox dead stain); conditions: pre-formed A549 spheroids (11 days), concentrations near IC50 values, 7 days after drug treatment; FIG. 5
Description: To evaluate the efficacy of the drugs in diffusion-limited environments, A549 cells were embedded and cultured for 11 days before any drug treatment (BBI-608, BBI-503, gemcitabine, or doxorubicin). Spheroids of A549 cells were pre-formed from single cells embedded in an alginate-based 3D cell culture for 11 days. The pre-formed spheroids were treated with drugs (0.3 μM BBI-608, 2.5 μM BBI-503, 30 μM sunitinib, 4 μM doxorubicin, 0.5 μM gemcitabine) and incubated with the dead stain CellTox Dye. Micrographs were taken 7 days after the drug treatments.
In a 6-well plate, A549 cells were embedded in an alginate-based 3D cell culture and cultured for 11 days before addition of BBI-608, BBI-503, sunitinib, doxorubicin, and gemcitabine. Cells were cultured for an additional 7 days before staining them with CellTox™ Green Dye (Promega) to stain the dead cells. Images of the stained samples were taken using an EVOS fluorescence microscope (Life Technologies, Carlsbad, Calif.).

| IC50 in the alginate-based 3D cell culture relative to the conventional 2D culture (A549 cells) | fold change resistance (IC50 in alginate-based 3D cell culture divided by IC50 in conventional 2D culture) (A549 cells) | Structure (SMILES) | cell death, share of spheroids (A549 cellular spheroids) |
| --- | --- | --- | --- |
| lower | less than single-fold | CCN(CC)CCNC(=O)c1c(C)[nH]c(/C=C2\C(=O)Nc3ccc(-c4csc(-c5ccccc5)n4)cc32)c1C [BBI-503] | about 90% |
| greater |  | Nc1ccn([C@@H]2O[C@H](CO)[C@@H](O)C2(F)F)c(=O)n1 [gemcitabine, reference compound] |  |
| lower | less than single-fold | CC(=O)c1cc2c(o1)C(=O)c1ccccc1C2=O [BBI-608, 2-acetylnaphtho[2,3-b]furan-4,9-dione] | about 90% |
| greater |  | COc1cccc2c1C(=O)c1c(O)c3c(c(O)c1C2=O)C[C@@](O)(C(=O)CO)C[C@@H]3O[C@H]1C[C@H](N)[C@H](O)[C@H](C)O1 [doxorubicin, reference compound] |  |
